According to patent US12653183B2, “Hygroscopic salt microencapsulation, and uses thereof” (priority 2020, dated 2026):

Legend:
feral pigs [1] = settings: cited from earlier work
feral pigs [2] = experiment: LD50 and time to death of 1080 in feral pigs; settings: feral pigs vs wild dogs
[3] = pH<7

SMILES | time for pigs to die (feral pigs [1]) | multiple of the dose used for canid pests (feral pigs [2]) [fold] | stability of sodium nitrite in the bait composition [3]
O=C(O)CF [compound 1080, sodium fluoroacetate] | up to 12 hours | ≤ 40 | –
O=NO [sodium nitrite] | – | – | unstable
